Read-outs that look alike come from different tables or passages of the source.

This note sets out measurements from patent US8222247B2, “Modulators of glucocorticoid receptor, AP-1, and/or NF-kappabeta activity and use thereof” (Bristol-Myers Squibb Company, priority 2006, dated 2012).

This test deals with AP-1 induced transcriptional activity. The experiment in a line: Cellular Transrepressional Assay (AP-1 luciferase reporter in A549 cell, PMA activated). The test is classed as cell-based. To be noted: pAP-1-Luc; for Emax / AP-1 Max % inh (Cellular Transrepression Assay): maximum inhibition, PMA; for Emax: read-out: AP-1 Max % inh (Cellular Transrepression Assay); for EC50: 10 ng/ml PMA, 7 hours, read-out: AP-1 EC50, nM (Cellular Transrepression Assay). How it is done: Cellular Transrepressional Assay
To measure the ability of test molecules to inhibit AP-1 induced transcriptional activity we utilized an A549 cell which was stably transfected with a plasmid containing 7×AP-1 DNA binding sites (pAP-1-Luc plasmid, Stratagene Co. La Jolla, Calif.) followed by the gene for luciferase. Cells were activated with 10 ng/ml of phorbol myristic acid (PMA) plus or minus test molecules for 7 hours. After 7 hours a luciferase reagent was added to measure luciferase enzymatic activity in the cell. After a 10 minute incubation of luciferase reagent with cells, luminescence was measured in a TopCount luminescence counter. Repression of AP-1 activity was calculated as the percentage decrease in the signal induced by PMA alone. Test molecules were analyzed in the concentration range from 0.1 nM to 40 μM. EC50s were determined by using standard curve fitting methods such as Excel fit (Microsoft Co.). An EC50 is the test molecule concentration at which there is a 50% repression of the maximal inhibition of transcription, i.e. a 50% reduction of AP-1 activity.
Background: In a reporter assay the amount or activity of a reporter protein is the signal.

As a reminder, the EC50 is the midpoint of the concentration-response curve. As to `CC(C)(C(=O)Nc1nccs1)C(c1ccccc1)c1ccc(N2CCOCC2)nc1` (single isomer, unassigned) [Example 21, 2,2-Dimethyl-3-(6-(4-morpholinyl)-3-pyridinyl)-3-phenyl-N-1,3-thiazol-2-ylpropanamide], for the setting “Homo sapiens, A549, 7 h”, the Emax turned out to be 23.9% and the EC50 turned out to be 40.5 nM.

Take `CC(C)(C(=O)Nc1nncs1)C(c1ccccc1)c1ccc(N2CCOCC2)nc1` (single isomer, unassigned) [Example 23, 2,2-Dimethyl-3-(6-(4-morpholinyl)-3-pyridinyl)-3-phenyl-N-1,3,4-thiadiazol-2-ylpropanamide]: where the note is “Homo sapiens, A549, 7 h”, the Emax came to 29.4% and the EC50 came to 142 nM.

In the case of `CCN(C)C(=O)c1ccc(-c2ccc(C(c3cccc(F)c3)C(C)C(=O)Nc3nncs3)s2)cc1` (single isomer, unassigned) [Example 98, N-ethyl-4-(5-(1-(3-fluorophenyl)-2-methyl-3-oxo-3-(1,3,4-thiadiazol-2-ylamino)propyl)-2-thienyl)-N-methylbenzamide], the EC50 amounted to 15.8 nM. Besides, the Emax (Homo sapiens, A549, 7 h) was 55.3%.

Regarding `CCN(C)C(=O)c1ccc(-c2ccc(C(c3cccc(F)c3)C(C)C(=O)Nc3nncs3)s2)cc1` (single isomer, unassigned) [Example 99, N-ethyl-4-(5-(1-(3-fluorophenyl)-2-methyl-3-oxo-3-(1,3,4-thiadiazol-2-ylamino)propyl)-2-thienyl)-N-methylbenzamide], the “AP-1 Max % inh (Cellular Transrepression Assay)” value (“AP-1 Max % inh” for short) is given as 49.36 % inh and the EC50 stood at 279 nM.

Consider `CC(C(=O)Nc1nncs1)C(c1cccc(F)c1)c1ccc(-c2ccc(C(=O)N3CCOCC3)cc2)s1` (single isomer, unassigned) [Example 100, 3-(3-fluorophenyl)-2-methyl-3-(5-(4-(4-morpholinylcarbonyl)phenyl)-2-thienyl)-N-1,3,4-thiadiazol-2-ylpropanamide], for which the EC50 stood at 8.8 nM. Also, the Emax (Homo sapiens, A549, 7 h) stood at 50.6%.

`CC(C(=O)Nc1nncs1)C(c1cccc(F)c1)c1ccc(-c2ccc(C(=O)N3CCOCC3)cc2)s1` (single isomer, unassigned) [Example 101, 3-(3-fluorophenyl)-2-methyl-3-(5-(4-(4-morpholinylcarbonyl)phenyl)-2-thienyl)-N-1,3,4-thiadiazol-2-ylpropanamide]: the “AP-1 Max % inh” value worked out at 51.00 % inh and the EC50 amounted to 576 nM.

Regarding `CC(C(=O)Nc1nncs1)C(c1cccc(F)c1)c1ccc(-c2ccc(C(=O)N(C)C)cc2)s1` (single isomer, unassigned) [Example 102, 4-(5-(1-(3-fluorophenyl)-2-methyl-3-oxo-3-(1,3,4-thiadiazol-2-ylamino)propyl)-2-thienyl)-N,N-dimethylbenzamide], the EC50 came out at 10.6 nM. Also, for the setting “Homo sapiens, A549, 7 h”, the Emax came out at 52.6%.

Consider `CC(C(=O)Nc1nncs1)C(c1cccc(F)c1)c1ccc(-c2ccc(C(=O)N(C)C)cc2)s1` (single isomer, unassigned) [Example 103, 4-(5-(1-(3-fluorophenyl)-2-methyl-3-oxo-3-(1,3,4-thiadiazol-2-ylamino)propyl)-2-thienyl)-N,N-dimethylbenzamide], for which the “AP-1 Max % inh” value came to 49.86 % inh and the EC50 is 879 nM.

As for `CC(C(=O)Nc1nncs1)C(c1cccc(F)c1)c1ccc(-c2ccc(C(=O)N(C)C)c(Cl)c2)s1` (single isomer, unassigned) [Example 104, 2-chloro-4-(5-(1-(3-fluorophenyl)-2-methyl-3-oxo-3-(1,3,4-thiadiazol-2-ylamino)propyl)-2-thienyl)-N,N-dimethylbenzamide], the EC50 stood at 38.7 nM. In addition, the Emax (Homo sapiens, A549, 7 h) is 49.5%.

Turning to `CC(C(=O)Nc1nncs1)C(c1cccc(F)c1)c1ccc(-c2ccc(C(=O)N(C)C)c(Cl)c2)s1` (single isomer, unassigned) [Example 105, 2-chloro-4-(5-(1-(3-fluorophenyl)-2-methyl-3-oxo-3-(1,3,4-thiadiazol-2-ylamino)propyl)-2-thienyl)-N,N-dimethylbenzamide], the “AP-1 Max % inh” value is on record as 48.50 % inh and the EC50 worked out at 446 nM.

Consider `CC(C(=O)Nc1nncs1)C(c1ccccc1)c1ccc(-c2ccc(C(=O)N3CCOCC3)cc2)s1` (single isomer, unassigned) [Example 144, 2-methyl-3-(5-(4-(4-morpholinylcarbonyl)phenyl)-2-thienyl)-3-phenyl-N-1,3,4-thiadiazol-2-ylpropanamide], for which the “AP-1 Max % inh” value was 49.49 % inh and the EC50 amounted to 5.98 nM.

As for `CC(C(=O)Nc1nncs1)C(c1ccccc1)c1ccc(-c2ccc(C(=O)N3CCOCC3)cc2)s1` (single isomer, unassigned) [Example 145, 2-methyl-3-(5-(4-(4-morpholinylcarbonyl)phenyl)-2-thienyl)-3-phenyl-N-1,3,4-thiadiazol-2-ylpropanamide], the “AP-1 Max % inh” value is recorded as 25.24 % inh and the EC50 was found to be 64.6 nM.

As to `CC(C(=O)Nc1nncs1)C(c1ccccc1)c1ccc(-c2ccc(C(=O)N(C)C)cc2)s1` (single isomer, unassigned) [Example 146, N,N-dimethyl-4-(5-(2-methyl-3-oxo-1-phenyl-3-(1,3,4-thiadiazol-2-ylamino)propyl)-2-thienyl)benzamide], the EC50 came out at 14.6 nM. Besides, the Emax (Homo sapiens, A549, 7 h) was 59.1%.

Consider `CC(C(=O)Nc1nncs1)C(c1ccccc1)c1ccc(-c2ccc(C(=O)N(C)C)cc2)s1` (single isomer, unassigned) [Example 147, N,N-dimethyl-4-(5-(2-methyl-3-oxo-1-phenyl-3-(1,3,4-thiadiazol-2-ylamino)propyl)-2-thienyl)benzamide], for which the “AP-1 Max % inh” value stood at 48.44 % inh and the EC50 amounted to 168 nM.

Regarding `CC(C(=O)Nc1nncs1)C(c1ccccc1)c1ccc(-c2ccc(C(=O)N(C)C)c(Cl)c2)s1` (single isomer, unassigned) [Example 148, 2-chloro-N,N-dimethyl-4-(5-(2-methyl-3-oxo-1-phenyl-3-(1,3,4-thiadiazol-2-ylamino)propyl)-2-thienyl)benzamide], the EC50 stood at 24.6 nM. For the same compound, for the setting “Homo sapiens, A549, 7 h”, the Emax was found to be 51.5%.

Turning to `CC(C(=O)Nc1nncs1)C(c1ccccc1)c1ccc(-c2ccc(C(=O)N(C)C)c(Cl)c2)s1` (single isomer, unassigned) [Example 149, 2-chloro-N,N-dimethyl-4-(5-(2-methyl-3-oxo-1-phenyl-3-(1,3,4-thiadiazol-2-ylamino)propyl)-2-thienyl)benzamide], the “AP-1 Max % inh” value was found to be 54.20 % inh and the EC50 is 216 nM.

Regarding `CCN(C)C(=O)c1ccc(-c2ccc(C(c3ccccc3)C(C)C(=O)Nc3nncs3)s2)cc1` (single isomer, unassigned) [Example 150, N-ethyl-N-methyl-4-(5-(2-methyl-3-oxo-1-phenyl-3-(1,3,4-thiadiazol-2-ylamino)propyl)-2-thienyl)benzamide], the concentration for a half-maximal effect (EC50) was found to be 17.5 nM. In addition, the Emax (Homo sapiens, A549, 7 h) turned out to be 57.2%.

Turning to `CCN(C)C(=O)c1ccc(-c2ccc(C(c3ccccc3)C(C)C(=O)Nc3nncs3)s2)cc1` (single isomer, unassigned) [Example 151, N-ethyl-N-methyl-4-(5-(2-methyl-3-oxo-1-phenyl-3-(1,3,4-thiadiazol-2-ylamino)propyl)-2-thienyl)benzamide], the “AP-1 Max % inh” value stood at 48.08 % inh and the EC50 was found to be 203 nM.

On to `CC(C)(C(=O)Nc1nc(Cc2ccc(-c3ccncc3)cc2)cs1)C(c1ccccc1)c1ccncc1` (stereo not drawn) [Example 5, 2,2-dimethyl-3-phenyl-3-(4-pyridinyl)-N-(4-(4-(4-pyridinyl)benzyl)-1,3-thiazol-2-yl)propanamide], for which, under “Homo sapiens, A549, 7 h”, the Emax was 89.9% and the EC50 was 18.7 nM.

Turning to `CC(C)(C(=O)Nc1nccs1)C(c1cccc(F)c1)c1ccc(N2CCOCC2)s1` (stereo not drawn) [Example 10, 3-(3-fluorophenyl)-2,2-dimethyl-3-(5-(4-morpholinyl)-2-thienyl)-N-1,3-thiazol-2-ylpropanamide], for the setting “Homo sapiens, A549, 7 h”, the Emax worked out at 40% and the EC50 was found to be 700 nM.

As for `CC(C)(C(=O)Nc1nncs1)C(c1ccccc1)c1ccc(N2CCOCC2)nc1` (stereo not drawn) [Example 13, 2,2-dimethyl-3-(6-(4-morpholinyl)-3-pyridinyl)-3-phenyl-N-1,3,4-thiadiazol-2-ylpropanamide], where the note is “Homo sapiens, A549, 7 h”, the Emax is 42.2% and the EC50 is 245 nM.

Take `CC(C)(C(=O)Nc1nccs1)C(c1ccccc1)c1ccc(N2CCOCC2)nc1` (stereo not drawn) [Example 14, 2,2-dimethyl-3-(6-(4-morpholinyl)-3-pyridinyl)-3-phenyl-N-1,3-thiazol-2-ylpropanamide]: where the note is “Homo sapiens, A549, 7 h”, the Emax amounted to 46% and the EC50 worked out at 62.9 nM.

`COc1ccc(-c2ccc(C(c3ccccc3)C(C)(C)C(=O)Nc3nccs3)cn2)cc1` (stereo not drawn) [Example 26, 3-(6-(4-methoxyphenyl)-3-pyridinyl)-2,2-dimethyl-3-phenyl-N-1,3-thiazol-2-ylpropanamide]: under “Homo sapiens, A549, 7 h”, the Emax worked out at 41.4% and the EC50 worked out at 316 nM.

As for `CCCc1ccc(-c2ccc(C(c3ccccc3)C(C)(C)C(=O)Nc3nncs3)cn2)cc1` (stereo not drawn) [Example 30, 2,2-dimethyl-3-phenyl-3-(6-(4-propylphenyl)-3-pyridinyl)-N-1,3,4-thiadiazol-2-ylpropanamide], where the note is “Homo sapiens, A549, 7 h”, the Emax is 39.4% and the EC50 was found to be 49 nM.
